Laboratory results: patent US7985417B2, “Method of lipid structure preparation” (Yissum Research Development Company of the Hebrew …, priority 2004, dated 2011)

Key:
[1] = Apparent pKa of DOPE-HC in EPC liposomes before and after insertion of PEG-DSPE; assay type: physicochemical
Method: (§1) More generally, and as noted above, the method of microwave irradiation can also be used to insert a lipid-polymer (“lipopolymer”), that is a lipopolymer lacking any ligand, into a pre-formed lipid structure, such as liposomes. This general concept was illustrated in another study, described in Example 4, where liposomes having a lipid bilayer of egg phosphatidylcholine and including a fluorescent label were incubated with a micellar suspension of the lipopolymer DSPE-PEG. Two studies were done, using two different fluorescent labels, shown in FIGS. 4A-4B, incorporated into the liposome lipid bilayers. […] A small amount of one of the fluorescent lipidic labels was included in the lipids during formation of the liposomes.
The DOPE-HC-labeled egg PC liposomes were incubated with DSPE-PEG (MW 2000 Daltons) conjugates in the presence of microwave irradiation for 90 seconds. The extent of lipopolymer insertion was calculated from the apparent pKa, as described in Example 4.
Also in this study, a sample of the EPC liposomes was combined with free polyethylene glycol (PEG, MW 2000 Daltons) and exposed for 90 seconds to microwave irradiation in the microwave oven at 60% capacity (850 W total capacity). No insertion of free PEG (i.e., PEG lacking a lipidic or hydrophobic portion) into liposomes was observed.
(§2) Liposomes comprised of egg phosphatidylcholine (EPC) and labeled with a pH-sensitive probe, 7-heptadecyl-4-hydroxycoumarin (C17HC) (FIG. 4A) or 1,2-dioleoyl-sn-glycero-3-phosphoethanolamine (DOPE-HC) (FIG. 4B), were prepared by thin film hydration followed by down sizing using extrusion. Briefly, EPC and one of the pH-sensitive probes were dissolved in an organic solvent in a round-bottomed flask. The solvent was removed by rotary evaporation to form a thin lipid film that was hydrated with an aqueous buffer to form multilamellar liposomes. The liposome suspension was sized by extrusion through polycarbonate membranes to an average diameter of 100 nm.
(§3) A conjugate of DSPE-PEG (PEG MW 2000 Daltons) was obtained commercially. A micellar suspension of the DSPE-PEG conjugate was mixed with a suspension of the labeled-EPC liposomes were incubated for 90 seconds in the presence of microwave irradiation in a conventional microwave oven operated at 60% power (Spectra, 850 W capacity). The extent of conjugate insertion was determined by the shift in the apparent pKa of HC moiety.
With respect to the liposomes labeled with DOPE-HC, the apparent pKa of DOPE-HC was calculated from the change of the ratio of excitation wavelengths 370/408 (emission wavelength 480 nm) as a function of bulk pH. Fluorescence was measured using an LS-50B luminescence spectrometer (Perkin Elmer, Norwalk, Conn.) immediately after exposure of microwave irradiation and 48 hours after exposure.

[2] = Apparent pKa of C17HC in EPC liposomes before and after insertion of PEG-DSPE; assay type: physicochemical
Method: as §1, §2, §3
With respect to the liposomes labeled with C17HC, the apparent pKa of C17HC was calculated from the change of the ratio of excitation wavelengths 380/330 (emission wavelength 450 nm) as a function of bulk pH (Zuidam and Barenholz, Biochim Biophys Acta, 1329(2):211-22 (1997)). Fluorescence was measured using an LS-50B luminescence spectrometer (Perkin Elmer, Norwalk, Conn.). As a comparative reference, the insertion of DSPE-PEG into the same liposomes at room temperature was also measured.

[3] = EPC with PEG-DSPE (90 sec in MW) after 48 hours
[4] = EPC with PEG-DSPE (90 sec in MW) immediately

apparent pKa ([1]; EPC with PEG (90 sec in MW) after 48 hours)	apparent pKa ([1]; EPC with PEG (90 sec in MW) immediately)	apparent pKa [1, 3]	apparent pKa [1, 4]	apparent pKa ([1]; EPC without PEG-DSPE or 2000PEG, after 48 hours)	apparent pKa ([1]; EPC without PEG-DSPE or PEG)	apparent pKa [2, 3]	apparent pKa [2, 4]	apparent pKa ([2]; EPC with PEG-DSPE (5 hours at RT))	apparent pKa ([2]; EPC with PEG-DSPE (5 hours at RT) after 48 hours)	apparent pKa ([2]; EPC without PEG-DSPE)	SMILES
9.08	9.09	9.38	9.26	9.28	9.12	–	–	–	–	–	CCCCCCCC/C=C\CCCCCCCC(=O)OC[C@H](COP(=O)(O)OCCN)OC(=O)CCCCCCC/C=C\CCCCCCCC [DOPE-HC, 1,2-dioleoyl-sn-glycero-3-phosphoethanolamine]
–	–	–	–	–	–	10.28	9.98	10.13	10.14	9.41	CCCCCCCCCCCCCCCCCc1ccc2c(O)cc(=O)oc2c1 [C17HC, 7-heptadecyl-4-hydroxycoumarin]
